Test results taken from the supplement of paper PMC10307832.

Compound: O=c1ncccn1[C@@H]1O[C@H](CO)[C@@H](O)[C@H]1O [Zebularine] + COc1cc2c(Oc3ccc(NC(=O)C4(C(=O)Nc5ccc(F)cc5)CC4)cc3F)ccnc2cc1OCCCN1CCOCC1 [Foretinib] (partner 0.25 µM)
Test: relative viability (nuclei count vs DMSO), 5 days (fraction); higher = more cells survive
Conditions: first compound 1 µM
Summary of the method: (§1)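 Relative viability was taken as the ratio of nuclei in treated wells to nuclei in vehicle wells. Lung cancer cell lines in 1536-well plates received compounds by pin tool one day after seeding, either one drug alone or a fixed anchor-drug dose plus five library-drug doses (not always all listed) in √10 steps. Nuclei were counted on 4× images after 5 days of treatment, and values are medians of duplicate plates.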

Point of comparison: RERF-LC-KJ, relative viability 1. Against it:
- CAL-12T — higher, 1.2
- NCI-H1651 — lower, 0.856
- EPLC-272H — lower, 0.958
- NCI-H2228 — lower, 0.902
- NCI-H1355 — higher, 1.02
- NCI-H3122 — higher, 1.02
- NCI-H1437 — higher, 1.33
- NCI-H1755 — lower, 0.925
- NCI-H2023 — lower, 0.843
- HCC-15 — higher, 1.21
- NCI-H1793 — lower, 0.685
- PC-14 — higher, 1.03
- EKVX — lower, 0.893
- LC-2-ad — lower, 0.868
- NCI-H1944 — lower, 0.966
- NCI-H1975 — lower, 0.961
- PC-3 [JPC-3] — higher, 1.09

Same assay, conditions: first compound 3.162 µM

Point of comparison: NCI-H1437, relative viability 1.29. Against it:
- CAL-12T — lower, 1.09
- NCI-H1651 — lower, 0.93
- EPLC-272H — lower, 0.591
- NCI-H2228 — lower, 0.898
- NCI-H1355 — lower, 0.907
- NCI-H3122 — lower, 0.939
- NCI-H1755 — lower, 0.918
- NCI-H2023 — lower, 0.891
- HCC-15 — lower, 1.08
- NCI-H1793 — lower, 0.84
- PC-14 — lower, 0.878
- EKVX — lower, 0.624
- LC-2-ad — lower, 0.828
- NCI-H1944 — lower, 0.859
- NCI-H1975 — lower, 0.889
- RERF-LC-KJ — lower, 0.879
- PC-3 [JPC-3] — lower, 1.07

Same assay, conditions: first compound 10 µM

Point of comparison: PC-3 [JPC-3], relative viability 0.67. Against it:
- CAL-12T — higher, 0.931
- NCI-H1651 — lower, 0.511
- EPLC-272H — lower, 0.6
- NCI-H2228 — lower, 0.507
- NCI-H1355 — lower, 0.631
- NCI-H1437 — higher, 1.04
- NCI-H1755 — higher, 0.854
- NCI-H2023 — higher, 0.713
- HCC-15 — higher, 0.833
- PC-14 — lower, 0.48
- EKVX — higher, 0.731
- LC-2-ad — higher, 0.717
- NCI-H1944 — higher, 0.858
- NCI-H1975 — lower, 0.362

Same assay, conditions: first compound 31.62 µM

Point of comparison: NCI-H2023, relative viability 0.635. Against it:
- CAL-12T — higher, 1.15
- NCI-H1651 — higher, 0.738
- EPLC-272H — lower, 0.631
- NCI-H2228 — higher, 0.914
- NCI-H1355 — lower, 0.47
- NCI-H3122 — higher, 1.02
- NCI-H1437 — higher, 1.21
- NCI-H1755 — higher, 0.992
- HCC-15 — higher, 0.861
- NCI-H1793 — lower, 0.573
- PC-14 — lower, 0.191
- EKVX — higher, 0.753
- LC-2-ad — higher, 0.674
- NCI-H1944 — higher, 0.81
- NCI-H1975 — lower, 0.292
- RERF-LC-KJ — higher, 0.895
- PC-3 [JPC-3] — higher, 0.829

Same assay, conditions: first compound 100 µM

Point of comparison: NCI-H1975, relative viability 0.2. Against it:
- CAL-12T — higher, 0.671
- NCI-H1651 — higher, 0.374
- EPLC-272H — higher, 0.468
- NCI-H2228 — higher, 0.281
- NCI-H1355 — higher, 0.325
- NCI-H3122 — higher, 0.969
- NCI-H1437 — higher, 0.653
- NCI-H1755 — higher, 0.591
- NCI-H2023 — higher, 0.361
- HCC-15 — higher, 0.434
- NCI-H1793 — higher, 0.207
- PC-14 — lower, 0.158
- EKVX — higher, 0.75
- LC-2-ad — higher, 0.454
- NCI-H1944 — higher, 0.649
- RERF-LC-KJ — higher, 0.871
- PC-3 [JPC-3] — higher, 0.444

Compound: CC(C)CCN1c2nc(Nc3cc(F)c(O)c(F)c3)ncc2N(C)C(=O)C1C [BI-D1870] + CC1(C)CCC(c2ccc(Cl)cc2)=C(CN2CCN(c3ccc(C(=O)NS(=O)(=O)c4ccc(N[C@H](CCN5CCOCC5)CSc5ccccc5)c(S(=O)(=O)C(F)(F)F)c4)cc3)CC2)C1 [Navitoclax] (partner 0.5 µM)
Test: as above
Conditions: first compound 0.04 µM
Summary of the method: as §1

Point of comparison: EKVX, relative viability 1.01. Against it:
- CAL-12T — higher, 1.35
- NCI-H1651 — higher, 1.15
- EPLC-272H — higher, 1.3
- NCI-H2228 — lower, 0.94
- NCI-H1355 — lower, 0.959
- NCI-H3122 — lower, 1
- NCI-H1437 — higher, 1.19
- NCI-H1755 — higher, 1.06
- NCI-H2023 — higher, 1.03
- HCC-15 — lower, 0.685
- NCI-H1793 — lower, 0.34
- PC-14 — higher, 1.08
- LC-2-ad — lower, 0.549
- NCI-H1944 — the same, 1.01
- NCI-H1975 — higher, 1.12
- RERF-LC-KJ — lower, 0.917
- PC-3 [JPC-3] — lower, 0.812

Same assay, conditions: first compound 0.1265 µM

Point of comparison: NCI-H1755, relative viability 0.945. Against it:
- CAL-12T — higher, 1.03
- NCI-H1651 — higher, 0.946
- EPLC-272H — lower, 0.932
- NCI-H2228 — lower, 0.811
- NCI-H1355 — higher, 0.959
- NCI-H3122 — lower, 0.927
- NCI-H1437 — higher, 1.06
- NCI-H2023 — lower, 0.811
- HCC-15 — lower, 0.656
- NCI-H1793 — lower, 0.342
- PC-14 — higher, 0.961
- EKVX — lower, 0.909
- LC-2-ad — lower, 0.44
- NCI-H1944 — higher, 1.02
- NCI-H1975 — higher, 1.22
- RERF-LC-KJ — lower, 0.632
- PC-3 [JPC-3] — lower, 0.739

Same assay, conditions: first compound 0.4 µM

Point of comparison: NCI-H1355, relative viability 0.988. Against it:
- CAL-12T — higher, 1.19
- NCI-H1651 — lower, 0.935
- EPLC-272H — higher, 1.05
- NCI-H2228 — lower, 0.819
- NCI-H3122 — higher, 1.1
- NCI-H1437 — higher, 1.11
- NCI-H1755 — higher, 0.995
- NCI-H2023 — higher, 1.01
- HCC-15 — lower, 0.681
- NCI-H1793 — lower, 0.372
- PC-14 — higher, 0.991
- EKVX — lower, 0.889
- LC-2-ad — lower, 0.444
- NCI-H1944 — the same, 0.988
- NCI-H1975 — higher, 1.14
- RERF-LC-KJ — lower, 0.979
- PC-3 [JPC-3] — lower, 0.743

Same assay, conditions: first compound 1.265 µM

Point of comparison: NCI-H2023, relative viability 0.864. Against it:
- CAL-12T — higher, 1.07
- NCI-H1651 — higher, 1.08
- EPLC-272H — higher, 1.24
- NCI-H2228 — lower, 0.823
- NCI-H1355 — higher, 1.05
- NCI-H3122 — higher, 0.993
- NCI-H1437 — higher, 1.03
- NCI-H1755 — higher, 1.07
- HCC-15 — lower, 0.721
- NCI-H1793 — lower, 0.554
- PC-14 — higher, 1.07
- EKVX — higher, 1
- LC-2-ad — lower, 0.41
- NCI-H1944 — higher, 1.09
- NCI-H1975 — higher, 1.06
- RERF-LC-KJ — higher, 1.02
- PC-3 [JPC-3] — lower, 0.809

Same assay, conditions: first compound 4 µM

Point of comparison: HCC-15, relative viability 0.459. Against it:
- CAL-12T — higher, 1.08
- NCI-H1651 — higher, 0.778
- EPLC-272H — higher, 1.03
- NCI-H2228 — lower, 0.359
- NCI-H1355 — higher, 1.03
- NCI-H3122 — higher, 1.04
- NCI-H1437 — higher, 0.973
- NCI-H1755 — higher, 1.01
- NCI-H2023 — higher, 0.894
- NCI-H1793 — lower, 0.45
- PC-14 — higher, 0.928
- EKVX — higher, 0.922
- LC-2-ad — lower, 0.244
